Source: US20240197596A1, “COMPOUNDS USEFUL AS HAIR DYES” (National University of Singapore, priority 2021, published 2024)
In brackets after ≈: the same amount, converted by molar mass. Read-outs that look alike come from different tables or passages of the source.

Tests used:
THP-1 cells = assay: h-CLAT assay on THP-1 cells: markers against OECD cut-off, prediction, cell viability; type: cell-based, human; details: for CD54 and CD86 marker expression against OECD cut-off: 8 doses based on CV75, 24 h
Protocol: The assay was conducted as per the literature (Toxicol In Vitro, 2006, 20, 767-73). THP-1 cells were cultured in 24-well plates (1×10^6 cells/1 mL/well) with various concentrations of each chemical (N1-N13), +ve control (DNCB), −ve control for 24 h.
THP-1 cells were cultured in 24-well plates (1×10^6 cells/mL/well) and treated with recommended concentrations of each chemical (N1-N13), positive control (DNCB) or negative control (SLS) for 24 h. THP-1 cells were cultured and treated with 8 doses of N1-N13 based on the CV75 namely, 1.2×CV75, 1×CV75, 1/1.2×CV75, 1/1.2^2×CV75, 1/1.23×CV75, 1/1.24×CV75, 1/1.2^5×CV75 and 1/1.2^6×CV75. After 24 h, cells were transferred to 1.5 mL of microtubes and centrifuged at 450 g, 5 min, 4° C. Supernatant was discarded and cells were washed with 1 mL of FACS buffer (PBS+FBS+HEPES). The cells were centrifuged at 450 g, 5 min, 4° C. 50 μL of Fc block (0.01% of Globlins Cohn fraction II, III) was added and incubated for 10 min at 4° C. The cells were stained with 20 μL APC CD54 (Mouse IgG1, K, BD Biosciences, San Diego, CA, USA), 20 μL FITC CD86 (Mouse IgG1, K, BD Biosciences, San Diego, CA, USA) or their respective isotype controls and incubated for 15 min at room temperature in dark. After incubation, the antibodies were diluted with 200 μl FACS buffer. The cells were washed with 1 mL FACS buffer twice. Further, 200 μL Propidium iodide (PI, 0.625 μg/mL) prepared in FACS buffer was added before the flow cytometry analysis. Flow cytometric analysis was performed with BD LSR Fortessa™ (Becton Dickinson, San Jose, CA, USA) In total, 10,000 living cells were analysed, and data were processed using Flowjo software (v10.6, Ashland, OR, USA). The test concentration providing a cell viability of 75% (CV75) was derived from the dose response curve and was calculated by log-linear interpolation.
Geometric mean fluorescence intensity (MFI) was measured for CD54^+ and CD86^+ cells separately and percentage relative fluorescence intensity (% RFI), reflective of CD86 and CD54 relative expression was calculated as described below. RFI was not calculated if cell viability fell below 50%.
All chemicals were tested in three independent experiments. If in two of three independent experiments at any dose exceeded 150% RFI for CD86, or 200% RFI for CD54, the chemicals could be identified as a sensitizer. Otherwise it is identified as a non-sensitizer.

HaCaT cells = assay: MTT assay on HaCaT cells; type: cell-based; details: Homo sapiens, 72 h
Protocol: HaCaT (human, adult, low calcium, high temperature, skin keratinocyte) cell suspension was adjusted to 5×10^3 cells per well and seeded in 96-well plates, then incubated at 37° C. with 5% CO2. After 24 h, 10 mM stock solutions of N1-N13 in autoclaved milli-Q water were prepared and serially diluted concentrations were added to the wells. Each concentration was performed in 6-replicates, and seeded wells with only media and no compound were used as controls while wells with only media were used as blanks. The plate was incubated for 72 h, after which 100 μL of MTT reagent was added and the plate was further incubated for 3 h before adding 100 μL of DMSO. Subsequently, the plate was shaken for 20 min, and then absorbance at 570 nm was determined using a Bio-Tek plate reader.

[1] = Thermodynamic solubility assay (modified shake flask, LC-MS/MS); details: Milli-Q water, pH=7, 25° C., 24 h, 3 separate determinations; for solubility at 24 h: 25 °C, pH 7, water, thermodynamic from solid
Protocol: The aqueous solubilities (pH=7) of these compounds were measured using the modified shake flask method and LC-MS/MS. Each hair dye was added into a 2 mL glass vial containing Milli-Q water (1 mL) to form the precipitates at 25° C. Then the mixture was subjected to a solubility-equilibrium stage. The vials were shaken at 300 rpm at 25° C. for 24 h. The precipitate was separated by centrifugation at 23,000 g for 20 min. Subsequently, 0.5 mL of supernatant was transferred into a 1 mL Eppendorf tube, and it was centrifuged again as mentioned above. The supernatant was then used for LC-MS/MS analysis.
The mass spectrometric analysis was performed by use of a AB SCIEX QTRAP 5500 tandem mass spectrometry (MS/MS) system (AB SCIEX, Framingham, MA, USA) operating in triple quadrupole positive mode (ESI+) equipped with an AB Sciex Turbo Ion Spray interface. Acquisition and analysis of data were performed with Analyst software ver. 1.4.2 (Applied Biosystems) which performed all chromatographic peak integration. For each hair dye, a standard curve consisting of four concentrations was established.
Solvent A was composed of 0.1% [v/v] formic acid in Milli-Q water while solvent B was composed of 0.1% [v/v] formic acid in acetonitrile. A mobile phase gradient pumped at 0.6 mL/min was used to elute the hair dyes from the column. The column was equilibrated for 1 min resulting in a total run time of 5 min. The injection volume was 5.0 μL for all derivatives. To prevent compound accumulation on the needle, 50% methanol in ACN was used as needle wash for 30 s per sample.

[2] = HaCaT cells, MTT, read-out: IC50

Compound | solubility at 24 h [1] [mg/mL] | Solubility [1] | CD54 and CD86 marker expression against OECD cut-off (THP-1 cells) | IC50 (HaCaT cells; [2]) [µM] | marker induction, times lower than DNCB (THP-1 cells) | IC50 (HaCaT cells; HaCaT) [µM] | marker induction, times lower than DNCB (THP-1 cells; human, 24 h)
Nc1ccc(N)c(OCC2CO2)c1 (stereo not shown) [Compound N4, 2-(oxiran-2-ylmethoxy)benzene-1,4-diamine] | 65 to 72 (≈ 361 to 400 mM) | 70 + 4.6 mg/ml | did not express the markers at any tested dose level |  |  | 578 | 
COCCOCCOc1cc(N)ccc1N [Compound N5, 2-[2-(2-methoxyethoxy)ethoxy]benzene-1,4-diamine] | 78 to 100 (≈ 345 to 442 mM) | 85 + 2.5 mg/ml | failed to induce marker expression above the recommended % RFI cut-off | 43.3 |  |  | 
N#CCOc1cc(N)ccc1N [Compound N6, 2-(2,5-diaminophenoxy)acetonitrile] |  |  |  |  |  | > 1000 | 3
CCC(=O)COc1cc(N)ccc1N [Compound N11, 1-(2,5-diaminophenoxy)butan-2-one] | 45 (≈ 232 mM) |  | did not express the markers at any tested dose level | 196 |  |  | 
C=C(C)Oc1cc(N)ccc1N [Compound N12, 2-(prop-1-en-2-yloxy)benzene-1,4-diamine] | 32 (≈ 195 mM) |  | failed to induce marker expression above the recommended % RFI cut-off | 127 |  |  | 
CNCCOc1cc(N)ccc1N [Compound N13, 2-(2-(methylamino)ethoxy)benzene-1,4-diamine] | 38 (≈ 210 mM) |  |  | 120 |  |  | 

Now from value to molecule, other results behind:

solubility at 24 h [1] [mg/mL] | Solubility [1] | Compound | CD54 and CD86 marker expression against OECD cut-off (THP-1 cells) | IC50 (HaCaT cells; [2]) [µM] | marker induction, times lower than DNCB (THP-1 cells) | IC50 (HaCaT cells; HaCaT) [µM] | marker induction, times lower than DNCB (THP-1 cells; human, 24 h)
78 to 100 (≈ 367 to 471 mM) | 85 + 4.0 mg/ml | COC(COc1cc(N)ccc1N)OC [Compound N1, 2-(2,2-dimethoxyethoxy)benzene-1,4-diamine] | did not express the markers at any tested dose level | 508 |  |  | 
78 to 100 (≈ 464 to 595 mM) | 90 + 2.6 mg/ml | COCOc1cc(N)ccc1N [Compound N2, 2-(methoxymethoxy)benzene-1,4-diamine] |  | 297 | 3 |  | 
65 to 72 (≈ 357 to 395 mM) | 65 + 3.6 mg/ml | CCOCOc1cc(N)ccc1N [Compound N3, 2-(ethoxymethoxy)benzene-1,4-diamine] |  | 457 | 3 |  | 
65 to 72 (≈ 357 to 395 mM) | 62 mg/mL (≈ 340 mM) | COCCOc1cc(N)ccc1N [Compound N7, 2-(2-methoxyethoxy)benzene-1,4-diamine] | failed to induce marker expression above the recommended % RFI cut-off | 33.5 |  |  | 
78 to 100 (≈ 423 to 543 mM) | 92 + 3.0 mg/ml | Nc1ccc(N)c(OCOCO)c1 [Compound N8, ((2,5-diaminophenoxy)methoxy)methanol] | failed to induce marker expression above the recommended % RFI cut-off | 219 |  |  | 
65 to 72 (≈ 386 to 428 mM) | 72 + 3.4 mg/ml | Nc1ccc(N)c(OCCO)c1 [Compound N9, 2-(2,5-diaminophenoxy)ethan-1-ol] | failed to induce marker expression above the recommended % RFI cut-off | 272 |  |  | 
78 to 100 (≈ 428 to 549 mM) | 78 + 2.5 mg/ml | CC(O)COc1cc(N)ccc1N (stereo not shown) [Compound N10, 1-(2,5-diaminophenoxy)propan-2-ol] | did not express the markers at any tested dose level | 283 |  |  | 
